This test has as its target Terminally biotinylated beta-amyloid (Aβ42) (Homo sapiens, UniProt P05067). Nature of the test: Aβ42 biotinylated (biotin-AB) oligomerization assay, NeutrAvidin capture ELISA. It counts as biochemical. The following applies: approximate value; 1 hr oligomerization at room temperature; read-out: IC50 Aβ 42-bio. How it is done:
Aβ42 Biotinylated Assay Terminally biotinylated beta-amyloid (biotin-AB) was dissolved in HFIP at the concentration of 1 mg/ml and aliquoted to 50 μl/tube in 0.65 ml colored microfuge tubes (Fisher 02-681-248). The aliquots were diluted immediately by adding 450 μl of HFIP to 0.1 mg/ml. Approximately 46 ul (containing approximately 4.6 ug of biotin-AB) were taken from a tube, 100 ul of HFIP added, vortexed, and dried to a thin film under an N2 stream. 100 μl of trifluoroacetic acid (TFA) was added and vortexed. After 10 minute incubation at room temperature in a hood, resulting in disaggregation of seeds, the sample was vortexed again and dried again to a thin film under an N2 stream. 100 μl of HFIP was added, mixed, and the biotin-AB sample was dried for a third time under an N2 stream to remove residual TFA. The treated biotin-AB was dissolved in DMSO to a final peptide concentration of […] (SOX). An ELISA “capture” plate (Costar 9018) was coated with 50 μl of 1 μg/ml NeutrAvidin™ (NA) in 10 mM sodium phosphate buffer, pH 7.5. (NeutrAvidin can be prepared as 1 mg/ml (1000×) in milliQ water/10% glycerol and stored at −80° C. before use.) The plate was sealed plate with adhesive film and stored at 4° C. overnight, then blocked for 2 hours (unsealed) at room temperature with 200 μl/well OFB+0.1% v/v Tween 20. The “capture” plate was allowed to come to room temperature. Several dilutions of test compound were prepared with 100% DMSO, according to the desired concentration to be tested. 2.5 μl of diluted test compound was pipetted into the bottom of each well of a 96-well “dilution” polypropylene plate (Costar 3365), to which was added 250 ul of Oligomer Formation Buffer (OFB: 20 mM sodium phosphate, pH 7.5-150 mM NaCl). To begin oligomerization, 2 μl/well of the biotin-AB was added to the bottom of each well of a 96-well “reaction” polypropylene plate (Costar 3365) and 100 ul of each well of the “dilution” plate was transferred to the “reaction” plate (final concentration of DMSO being up to 1%). The reaction plate was sealed and incubated for 1 hr at room temperature without shaking. The reaction was then stopped by the addition of 50 ul of 0.3% Tween 20 in water. The “capture” plate blocking solution was removed, and 50 ul of each well of the “reaction” plate was transferred to each well of the “capture” plate. The “capture” plate was sealed and incubated for 2 hours at room temperature with shaking at 150 rpm. The “capture” plate was then washed on a plate washer (3×) with 200 ul/well TBST (20 mM Tris-HCL, pH 7.5/150 mM NaCl/0.1% Tween 20). 50 ul of Streptavidin-horseradish […] (1:20,000 dilution) in OFB+0.1% Tween 20 was added to each well, the “capture” plate was sealed and incubated for 1 hr with shaking at 150 rpm. As before, the plate was washed, then 100 ul of TMB/H2O2 substrate solution was added to each well. After 5-10 minutes, 100 ul of 1% v/v sulfuric acid was added and the absorbance of each well was read at 450 nm using a standard plate reader. Data is summarized in the table below; numbers given in parenthesis for the Aβ 40 Thioflavin T assays are the values in that particular experiment for compound ID 1027, given as the first entry in this table for structural comparison. “IC50 Aβ42-bio” column refers to the approximate value of the Aβ42 biotinylated assay IC50 in micromoles/L.

The record followed here is patent US9938249B2, “Anti-amyloid compounds containing benzofurazan” (Treventis Corporation, priority 2014, dated 2018).

Structures are written as SMILES. A value given as a limit tells only on which side of the number the result lay.

Terminally biotinylated beta-amyloid (Aβ42), sequence (P05067 672-713, species assumed): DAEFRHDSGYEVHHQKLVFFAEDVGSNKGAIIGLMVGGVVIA

Consider `N#Cc1ccc(-c2cc(N3CC(CN4CCOCC4)C3)c3nonc3c2)cc1` [compound 1574, 4-(7-(3-(morpholinomethyl)azetidin-1-yl)benzo[c][1,2,5]oxadiazol-5-yl)benzonitrile], for which the IC50 worked out at 16.5 µM.

In the case of `COc1cc(-c2cc(N3CC(CN4CCOCC4)C3)c3nonc3c2)ccc1F` [compound 1584, 6-(4-fluoro-3-methoxyphenyl)-4-(3-(morpholinomethyl)azetidin-1-yl) benzo[c][1,2,5]oxadiazole], the IC50 worked out at 7 µM.

For `OC(c1ccc(-c2cc(N3CC(CN4CCOCC4)C3)c3nonc3c2)s1)C(F)(F)F` (centres unmarked) [compound 1562, 2,2,2-trifluoro-1-(5-(7-(3-(morpholinomethyl)azetidin-1-yl)benzo[c][1,2,5]oxadiazol-5-yl)thiophen-2-yl)ethan-1-ol], the half-inhibitory concentration (IC50) was determined as 2.7 µM.

Consider `OC1(c2ccc(-c3cc(N4CC(CN5CCOCC5)C4)c4nonc4c3)cc2)COC1` [compound 1639], for which the half-inhibitory concentration (IC50) turned out to be 3.2 µM.

In the case of `c1nc(-c2cc(N3CC(CN4CCCC4)C3)c3nonc3c2)cs1` [compound 1561], the IC50 was found to be 6.9 µM.

For the compound `OC(c1cnc(-c2cc(N3CC(CN4CCCC4)C3)c3nonc3c2)s1)C(F)(F)F` (centres unmarked) [compound 1597], the IC50 came to 7.5 µM.

As to `OC(c1cnc(-c2cc(N3CC(CN4CCCC4)C3)c3nonc3c2)s1)C(F)(F)F` (centres unmarked) [compound 1546], the IC50 was determined as 8.4 µM.

`COc1ccc(-c2cc(N3CC(CN4CCOCC4)C3)c3nonc3c2)cc1Cl` [compound 1578, 6-(3-chloro-4-methoxyphenyl)-4-(3-(morpholinomethyl)azetidin-1-yl) benzo[c][1,2,5]oxadiazole]: the IC50 came to 2.9 µM.

Take `OC(c1ccc(-c2cc(N3CC(CN4CCCC4)C3)c3nonc3c2)nc1)C(F)(F)F` (centres unmarked) [compound 1545]: the IC50 turned out to be 8.4 µM.

Turning to `OCc1cnc(-c2cc(N3CC(CN4CCOCC4)C3)c3nonc3c2)o1` [compound 1607, (2-(7-(3-(morpholinomethyl)azetidin-1-yl)benzo[c][1,2,5]oxadiazol-5-yl)oxazol-5-yl)methanol], the IC50 was > 20 µM.

In the case of `NC(=O)c1cccc(-c2cc(N3CC(CN4CCCC4)C3)c3nonc3c2)c1` [compound 1609, 3-(7-(3-(pyrrolidin-1-ylmethyl)azetidin-1-yl)benzo[c][1,2,5]oxadiazol-5-yl)benzamide], the IC50 was found to be 2.4 µM.

In the case of `COc1cc(-c2cc(N3CC(CN4CCOCC4)C3)c3nonc3c2)ccc1C1CC1` [compound 1660, 6-(4-cyclopropyl-3-methoxyphenyl)-4-(3-(morpholinomethyl)azetidin-1-yl) benzo[c][1,2,5]oxadiazole], the IC50 worked out at 3.9 µM.

Regarding `OC1(c2ccc(-c3cc(N4CCC(N5CCOCC5)C4)c4nonc4c3)cc2)COC1` (centres unmarked) [compound 1719], the IC50 was determined as 13 µM.

Regarding `OC(c1ccnc(-c2cc(N3CC(CN4CCOCC4)C3)c3nonc3c2)c1)C(F)(F)F` (centres unmarked) [compound 1620, 2,2,2-trifluoro-1-(2-(7-(3-(morpholinomethyl)azetidin-1-yl)benzo[c][1,2,5]oxadiazol-5-yl)pyridin-4-yl)ethan-1-ol], the IC50 is 11.1 µM.

`COc1ccc(-c2cc(N3CC(CN4CCOCC4)C3)c3nonc3c2)cc1F` [compound 1585, 6-(3-fluoro-4-methoxyphenyl)-4-(3-(morpholinomethyl)azetidin-1-yl) benzo[c][1,2,5]oxadiazole]: the IC50 came out at 5.8 µM.

Regarding `Fc1ccc(-c2cc(N3CC(CN4CCCC4)C3)c3nonc3c2)cc1` [compound 1547], the IC50 amounted to 12 µM.

For `OC(/C=C/c1cc(N2CC(CN3CCOCC3)C2)c2nonc2c1)C(F)(F)F` (centres unmarked) [compound 1665, (E)-1,1,1-trifluoro-4-(7-(3-(morpholinomethyl)azetidin-1-yl)benzo[c][1,2,5]oxadiazol-5-yl)but-3-en-2-ol], the half-maximal inhibitory concentration (IC50) stood at 21.8 µM.

With `Cc1cc(C)c(-c2cc(N3CC(CN4CCCC4)C3)c3nonc3c2)c(C)c1` [compound 1558], the IC50 amounted to 5.9 µM.

With `NC(=O)c1ccc(-c2cc(N3CC(CN4CCOCC4)C3)c3nonc3c2)cc1` [compound 1610, 4-(7-(3-(morpholinomethyl)azetidin-1-yl)benzo[c][1,2,5]oxadiazol-5-yl)benzamide], the half-maximal inhibitory concentration (IC50) was > 20 µM.

As to `OC(c1nc(-c2cc(N3CC(CN4CCCC4)C3)c3nonc3c2)cs1)C(F)(F)F` (centres unmarked) [compound 1567], the IC50 worked out at 26.9 µM.

As for `OC(c1csc(-c2cc(N3CC(CN4CCOCC4)C3)c3nonc3c2)n1)C(F)(F)F` (centres unmarked) [compound 1626], the IC50 amounted to 10.9 µM.

Regarding `CN1CCCCC1c1cc(N2CC(CN3CCCC3)C2)c2nonc2c1` (centres unmarked) [compound 1557], the IC50 worked out at 18.7 µM.

Consider `Clc1cc(Cl)cc(-c2cc(N3CC(CN4CCOCC4)C3)c3nonc3c2)c1` [compound 1575, 6-(3,5-dichlorophenyl)-4-(3-(morpholinomethyl)azetidin-1-yl) benzo[c][1,2,5]oxadiazole], for which the IC50 turned out to be 4 µM.

On to `OC(c1cnc(-c2cc(N3CC(CN4CCOCC4)C3)c3nonc3c2)s1)C(F)(F)F` (centres unmarked) [compound 1625], for which the half-inhibitory concentration (IC50) was 4.2 µM.

In the case of `N#Cc1ccccc1-c1cc(N2CC(CN3CCOCC3)C2)c2nonc2c1` [compound 1586, 2-(7-(3-(morpholinomethyl)azetidin-1-yl)benzo[c][1,2,5]oxadiazol-5-yl)benzonitrile], the IC50 worked out at 41.9 µM.

As for `COc1ccc(-c2cc(N3CC(CN4CCOCC4)C3)c3nonc3c2)cc1OC` [compound 1573, 6-(3,4-dimethoxyphenyl)-4-(3-(morpholinomethyl)azetidin-1-yl) benzo[c][1,2,5]oxadiazole], the IC50 is 12.9 µM.

In the case of `OC(c1cccc(-c2cc(N3CC(CN4CCOCC4)C3)c3nonc3c2)n1)C(F)(F)F` (centres unmarked) [compound 1619, 2,2,2-trifluoro-1-(6-(7-(3-(morpholinomethyl)azetidin-1-yl)benzo[c][1,2,5]oxadiazol-5-yl)pyridin-2-yl)ethan-1-ol], the IC50 was 11.3 µM.

For `OCc1ccccc1-c1cc(N2CC(CN3CCOCC3)C2)c2nonc2c1` [compound 1572], the IC50 was > 20 µM.

With `OC(c1coc(-c2cc(N3CC(CN4CCOCC4)C3)c3nonc3c2)n1)C(F)(F)F` (centres unmarked) [compound 1608, 2,2,2-trifluoro-1-(2-(7-(3-(morpholinomethyl)azetidin-1-yl)benzo[c][1,2,5]oxadiazol-5-yl)oxazol-4-yl)ethan-1-ol], the IC50 was 8.6 µM.

As for `CC(c1cc(N2CC(CN3CCCC3)C2)c2nonc2c1)N(C1CC1)S(C)(=O)=O` (centres unmarked) [compound 1549], the IC50 amounted to 5.5 µM.

Take `OC(c1ncccc1-c1cc(N2CC(CN3CCOCC3)C2)c2nonc2c1)C(F)(F)F` (centres unmarked) [compound 1569, 2,2,2-trifluoro-1-(3-(7-(3-(morpholinomethyl)azetidin-1-yl)benzo[c][1,2,5]oxadiazol-5-yl)pyridin-2-yl) ethan-1-ol]: the IC50 turned out to be 11.5 µM.

In the case of `OC(c1cc(-c2cc(N3CC(CN4CCOCC4)C3)c3nonc3c2)cs1)C(F)(F)F` (centres unmarked) [compound 1568, 2,2,2-trifluoro-1-(4-(7-(3-(morpholinomethyl)azetidin-1-yl)benzo[c][1,2,5]oxadiazol-5-yl)thiophen-2-yl) ethan-1-ol], the IC50 turned out to be 5.5 µM.

For the compound `OC(CCc1cc(N2CC(CN3CCCC3)C2)c2nonc2c1)C(F)(F)F` (centres unmarked) [compound 1553], the IC50 is 12.1 µM.

With `NC(=O)c1ccc(-c2cc(N3CC(CN4CCCC4)C3)c3nonc3c2)cc1` [compound 1579, 4-(7-(3-(pyrrolidin-1-ylmethyl)azetidin-1-yl)benzo[c][1,2,5]oxadiazol-5-yl)benzamide], the IC50 amounted to 96 µM.

Regarding `OC(c1cncc(-c2cc(N3CC(CN4CCCC4)C3)c3nonc3c2)c1)C(F)(F)F` (centres unmarked) [compound 1544], the 50% inhibitory concentration (IC50) stood at 3.9 µM.
